In US7998978B2 (Pfizer Inc., priority 2006, dated 2011):

Biological target: T1, JNK1α1 (Homo sapiens, UniProt P45983)
T1 construct: catalytic domain containing amino acids 1-364 and N-terminal hexahistidine tag; hexahistidine (His6) (N); made in house; host or cells: E. coli BL21 (DE3)
Experiment: Coupled spectrophotometric (PK/LDH) JNK1α1 assay: % inhibition and Ki determination
Assay type: biochemical
Settings: for inhibition at 1 µM / inhibition at 10 µM: read-out: % Inhibition JNK-1; for Ki: JNK-1
Procedure, shortened: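 Initial rates were taken from the absorbance decrease at 340 nm at 30° C. Ki was fitted with a tight-binding model over 11 concentrations (top 100 μM); single-point inhibition was tested at 1 or 10 μM.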

T1 sequence (P45983 1-364): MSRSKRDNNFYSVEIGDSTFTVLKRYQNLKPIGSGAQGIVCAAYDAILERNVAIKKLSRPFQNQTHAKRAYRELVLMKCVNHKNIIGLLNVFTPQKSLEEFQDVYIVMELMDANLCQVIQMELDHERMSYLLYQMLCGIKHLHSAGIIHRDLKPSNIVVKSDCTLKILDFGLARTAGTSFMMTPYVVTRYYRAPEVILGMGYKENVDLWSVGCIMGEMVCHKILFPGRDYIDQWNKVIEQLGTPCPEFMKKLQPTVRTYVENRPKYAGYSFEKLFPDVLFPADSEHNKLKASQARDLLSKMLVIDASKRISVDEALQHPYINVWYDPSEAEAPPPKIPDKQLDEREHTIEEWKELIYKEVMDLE

| Structure (SMILES) | inhibition at 1 µM [%] | Ki [µM] | other results |
| --- | --- | --- | --- |
| COc1ccc(COc2cccc3cnc(N[C@H]4CC[C@H](O)CC4)nc23)cc1OC [Example 265, trans-4-({8-[(3,4-dimethoxybenzyl)oxy]quinazolin-2-yl}amino)cyclohexanol] | 47 |  |  |
| CC(=O)N[C@H]1CC[C@H](Nc2ncc3cccc(C(=O)NCC(C)(C)O)c3n2)CC1 [Example 135, 2-{[trans-4-(acetylamino)cyclohexyl]amino}-N-(2-hydroxy-2-methylpropyl)quinazoline-8-carboxamide] |  | 0.3 |  |
| Cc1cc(NC(=O)c2cccc3cnc(N[C@H]4CC[C@H](O)CC4)nc23)nc(C)n1 [Example 322, N-(2,6-dimethylpyrimidin-4-yl)-2-[(trans-4-hydroxycyclohexyl)amino]quinazoline-8-carboxamide] | 18 |  |  |
| O=C(NC1CCS(=O)(=O)C1)c1cccc2cnc(N[C@H]3CC[C@H](O)CC3)nc12 (stereo partly drawn) [Example 119, N-(1,1-dioxidotetrahydro-3-thienyl)-2-[(trans-4-hydroxycyclohexyl)amino]quinazoline-8-carboxamide] |  | 0.377 |  |
| O=C(NCCN1CCCCC1=O)c1cccc2cnc(N[C@H]3CC[C@H](O)CC3)nc12 [Example 486, 2-[(trans-4-hydroxycyclohexyl)amino]-N-[2-(2-oxopiperidin-1-yl)ethyl]quinazoline-8-carboxamide] |  |  | inhibition at 10 µM: 50% |
| O=C(NCc1nc2cc(F)ccc2[nH]1)c1ccc2cnc(N[C@H]3CC[C@H](O)CC3)nc2c1 [Example 354, N-[(5-fluoro-1H-benzimidazol-2-yl)methyl]-2-[(trans-4-hydroxycyclohexyl)amino]quinazoline-7-carboxamide] |  | 1.23 |  |
| Cn1cncc1CNC(=O)c1cccc2cnc(N[C@H]3CC[C@H](O)CC3)nc12 [Example 465, 2-[(trans-4-hydroxycyclohexyl)amino]-N-[(1-methyl-1H-imidazol-5-yl)methyl]quinazoline-8-carboxamide] |  | 0.782 |  |
| O=C(N[C@H](CO)CC1CCCCC1)c1ccc2cnc(N[C@H]3CC[C@H](O)CC3)nc2c1 [Example 386, N-[(1S)-2-cyclohexyl-1-(hydroxymethyl)ethyl]-2-[(trans-4-hydroxycyclohexyl)amino]quinazoline-7-carboxamide] |  | 0.271 |  |
| COCCOc1cccc2cnc(N[C@H]3CC[C@H](O)CC3)nc12 [Example 256, trans-4-{[8-(2-methoxyethoxy)quinazolin-2-yl]amino}cyclohexanol] | 29 |  |  |
| CNCCOc1ccc(-c2cccc3cnc(N[C@H]4CC[C@H](O)CC4)nc23)cc1 [Example 199, trans-4-[(8-{4-[2-(methylamino)ethoxy]phenyl}quinazolin-2-yl)amino]cyclohexanol] |  | 0.098 |  |
| Fc1ccc2cnc(NC3CCCCC3)nc2c1 [Example 148] |  | 0.456 |  |
| Cc1ccc(C(C)NC(=O)c2cccc3cnc(N[C@H]4CC[C@H](O)CC4)nc23)cn1 (stereo partly drawn) [Example 487, 2-[(trans-4-hydroxycyclohexyl)amino]-N-[1-(6-methylpyridin-3-yl)ethyl]quinazoline-8-carboxamide] |  |  | inhibition at 10 µM: 51% |
| CC(C)(CN1CCOCC1)NC(=O)c1cccc2cnc(N[C@H]3CC[C@H](O)CC3)nc12 [Example 105, N-(1,1-dimethyl-2-morpholin-4-ylethyl)-2-[(trans-4-hydroxycyclohexyl)amino]quinazoline-8-carboxamide] |  | 0.703 |  |
| CC(C)C[C@@H](CO)NC(=O)c1ccc2cnc(NC(C)C)nc2c1 [Example 391, N-[(1S)-1-(hydroxymethyl)-3-methylbutyl]-2-(isopropylamino)quinazoline-7-carboxamide] |  | 0.365 |  |
| CC(C)(C)OC(=O)NC(CC(=O)Nc1cc2cc(-c3cn[nH]c3)ccc2cn1)c1c(F)cccc1F (stereo not drawn) [Example 31, tert-butyl (1-(2,6-difluorophenyl)-3-oxo-3-{[6-(1H-pyrazol-4-yl)isoquinolin-3-yl]amino}propyl)carbamate] |  | 0.003 |  |
| O[C@H]1CC[C@H](Nc2ncc3ccc(OCc4ccccc4CN4CCCC4)cc3n2)CC1 [Example 297, trans-4-[(7-{[2-(pyrrolidin-1-ylmethyl)benzyl]oxy}quinazolin-2-yl)amino]cyclohexanol] | 28 |  |  |
| O=C(NCCO)c1cccc2cnc(N[C@H]3CC[C@H](O)CC3)nc12 [Example 108, 2-[(trans-4-hydroxycyclohexyl)amino]-N-(2-hydroxyethyl)quinazoline-8-carboxamide] |  | 0.126 |  |
| O=C(NCCc1ccccn1)c1cccc2cnc(N[C@H]3CC[C@H](O)CC3)nc12 [Example 469, 2-[(trans-4-hydroxycyclohexyl)amino]-N-(2-pyridin-2-ylethyl)quinazoline-8-carboxamide] | 10 |  |  |
| c1cc2cnc(NC3CCOCC3)cc2cc1-c1cn[nH]c1 [Example 218, 6-(1H-pyrazol-4-yl)-N-(tetrahydro-2H-pyran-4-yl)isoquinolin-3-amine] |  | 0.843 |  |
| CN1C(=O)OC[C@@H]1COc1ccc2cnc(N[C@H]3CC[C@H](O)CC3)nc2c1 [Example 289, 4-[({2-[(trans-4-hydroxycyclohexyl)amino]quinazolin-7-yl}oxy)methyl]-3-methyl-1,3-oxazolidin-2-one] | 69 |  |  |

| Structure (SMILES) | inhibition at 1 µM [%] | Ki [µM] | other results |
| --- | --- | --- | --- |
| CN(C)c1ncccc1NC(=O)c1cccc2cnc(N[C@H]3CC[C@H](O)CC3)nc12 [Example 319, N-[2-(dimethylamino)pyridin-3-yl]-2-[(trans-4-hydroxycyclohexyl)amino]quinazoline-8-carboxamide] | 27 |  |  |
| O[C@H]1CC[C@H](Nc2ncc3cccc(OCC4CCOC4)c3n2)CC1 (stereo partly drawn) [Example 249, trans-4-{[8-(tetrahydrofuran-3-ylmethoxy)quinazolin-2-yl]amino}cyclohexanol] |  | 0.323 |  |
| O=C(N[C@H]1CC[C@@H](CO)CC1)c1cccc2cnc(N[C@H]3CC[C@H](O)CC3)nc12 [Example 466, 2-[(trans-4-hydroxycyclohexyl)amino]-N-[cis-4-(hydroxymethyl)cyclohexyl]quinazoline-8-carboxamide] |  | 0.962 |  |
| CNC(=O)c1ccc2cnc(N[C@H]3CC[C@H](O)CC3)nc2c1 [Example 58, 2-[(trans-4-hydroxycyclohexyl)amino]-N-methylquinazoline-7-carboxamide] |  | 0.261 |  |
| O[C@H]1CC[C@H](Nc2ncc3ccc(OCC(F)(F)c4ccccn4)cc3n2)CC1 [Example 290, trans-4-{[7-(2,2-difluoro-2-pyridin-2-ylethoxy)quinazolin-2-yl]amino}cyclohexanol] | 53 |  |  |
| COc1ccc(F)c(CNc2cc3cc(-c4cn[nH]c4)ccc3cn2)c1 [Example 236, N-(2-fluoro-5-methoxybenzyl)-6-(1H-pyrazol-4-yl)isoquinolin-3-amine] |  |  | inhibition at 10 µM: 49% |
| CC(C)(CO)NC(=O)c1ccc2cnc(NC3CCCCC3)nc2c1 [Example 413, 2-(cyclohexylamino)-N-(2-hydroxy-1,1-dimethylethyl)quinazoline-7-carboxamide] |  | 1.27 |  |
| O=C(COCc1ccccc1)Nc1cc2cc(-c3cn[nH]c3)ccc2cn1 [Example 49, 2-(benzyloxy)-N-[6-(1H-pyrazol-4-yl)isoquinolin-3-yl]acetamide] |  | 0.003 |  |
| Cc1c(C(C)NC(=O)c2cccc3cnc(N[C@H]4CC[C@H](O)CC4)nc23)cnn1C (stereo partly drawn) [Example 479, N-[1-(1,5-dimethyl-1H-pyrazol-4-yl)ethyl]-2-[(trans-4-hydroxycyclohexyl)amino]quinazoline-8-carboxamide] | 13 |  |  |
| O=C(N[C@H](CO)Cc1ccccc1)c1ccc2cnc(NC3CCC3)nc2c1 [Example 420, N-[(1S)-1-benzyl-2-hydroxyethyl]-2-(cyclobutylamino)quinazoline-7-carboxamide] | 21 |  |  |
| O=C(NCCC1CCCCO1)c1ccc2cnc(N[C@H]3CC[C@H](O)CC3)nc2c1 (stereo partly drawn) [Example 343, 2-[(trans-4-hydroxycyclohexyl)amino]-N-[2-(tetrahydro-2H-pyran-2-yl)ethyl]quinazoline-7-carboxamide] |  | 0.855 |  |
| C[C@@H](NC(=O)c1ccc2cnc(N[C@H]3CC[C@H](O)CC3)nc2c1)c1ccccc1 [Example 87, 2-[(trans-4-hydroxycyclohexyl)amino]-N-[(1R)-1-phenylethyl]quinazoline-7-carboxamide] |  | 0.06 |  |
| O=C1OCCN1CCOc1ccc2cnc(N[C@H]3CC[C@H](O)CC3)nc2c1 [Example 282, 3-[2-({2-[(trans-4-hydroxycyclohexyl)amino]quinazolin-7-yl}oxy)ethyl]-1,3-oxazolidin-2-one] | 71 |  |  |
| O=C(NCc1nc(-c2ccccc2)no1)c1cccc2cnc(N[C@H]3CC[C@H](O)CC3)nc12 [Example 513, 2-[(trans-4-hydroxycyclohexyl)amino]-N-[(3-phenyl-1,2,4-oxadiazol-5-yl)methyl]quinazoline-8-carboxamide] | 21 |  |  |
| N[C@H]1CC[C@H](Nc2ncc3cccc(OC4CCOCC4)c3n2)CC1 [Example 178, trans-N-[8-(tetrahydro-2H-pyran-4-yloxy)quinazolin-2-yl]cyclohexane-1,4-diamine] |  | 0.744 |  |
| O=C(CNC(=O)c1ccc(O)c(Cl)c1)Nc1cc2cc(-c3cn[nH]c3)ccc2cn1 [Example 56, 3-chloro-4-hydroxy-N-(2-oxo-2-{[6-(1H-pyrazol-4-yl)isoquinolin-3-yl]amino}ethyl)benzamide] |  | 0.017 |  |
| O=C(Nc1ccccn1)c1ccc2cnc(N[C@H]3CC[C@H](O)CC3)nc2c1 [Example 330, 2-[(trans-4-hydroxycyclohexyl)amino]-N-pyridin-2-ylquinazoline-7-carboxamide] |  | 0.354 |  |
| COCCNC(=O)c1cccc2cnc(N[C@H]3CC[C@H](O)CC3)nc12 [Example 109, 2-[(trans-4-hydroxycyclohexyl)amino]-N-(2-methoxyethyl)quinazoline-8-carboxamide] |  | 0.678 |  |
| COC(C)(C)CCOc1cccc2cnc(N[C@H]3CC[C@H](O)CC3)nc12 [Example 241, trans-4-{[8-(3-methoxy-3-methylbutoxy)quinazolin-2-yl]amino}cyclohexanol] |  | 0.098 |  |
